Source: PubChem BioAssay (NCI)
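Tested at 5 concentrations; 48 h exposure; 96-well plates; endpoints linearly interpolated, else capped at highest concentration. Abbreviation: GI50, concentration required for 50% inhibition of growth. The concentration for full growth arrest is given as TGI.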

What was measured:
Assay in all cases: NCI anticancer screen, dose series, 48 h
A498 renal = system: A498 renal
BT-549 breast = system: BT-549 breast
CCRF-CEM leukemia = system: CCRF-CEM leukemia
K-562 leukemia = system: K-562 leukemia
MDA-MB-231 breast = system: MDA-MB-231 breast
NCI-H23 lung = system: NCI-H23 lung
NCI-H522 lung = system: NCI-H522 lung
SN12C renal = system: SN12C renal
T-47D breast = system: T-47D breast
HCC-2998 colon = system: HCC-2998 colon

In the case of `Cc1cc(Cl)nc2ccc(Cc3ccc4nc(Cl)cc(C)c4c3)cc12`, the TGI (A498 renal) is reported as 69.1 µM, the TGI (BT-549 breast) is reported as > 100 µM and the TGI (CCRF-CEM leukemia) is reported as > 100 µM. For the same compound, the TGI (K-562 leukemia) was > 100 µM, the TGI (MDA-MB-231 breast) was > 100 µM and the TGI (NCI-H23 lung) was > 100 µM. For the same compound, the TGI (NCI-H522 lung) was > 100 µM, the TGI (SN12C renal) was > 100 µM and the TGI (T-47D breast) was 54.8 µM.

Compound `CNC(=O)c1nn(C)c2c1C(C)(C)Cc1cnc(Nc3cccc(N4CCN(C)CC4)c3)nc1-2` has a GI50 (A498 renal) of 25.4 nM, a TGI (A498 renal) of 0.389 µM and a GI50 (BT-549 breast) of 2370 nM. The TGI (BT-549 breast) was 13.7 µM, the GI50 (CCRF-CEM leukemia) was 382 nM and the TGI (CCRF-CEM leukemia) was > 26.8 µM. For the same compound, the GI50 (HCC-2998 colon) was 830 nM, the TGI (HCC-2998 colon) was 14.9 µM and the GI50 (K-562 leukemia) was 443 nM. For the same compound, the TGI (K-562 leukemia) was > 50 µM, the GI50 (NCI-H23 lung) was 372 nM and the TGI (NCI-H23 lung) was 9.81 µM. The GI50 (NCI-H522 lung) was 554 nM, the TGI (NCI-H522 lung) was 11.1 µM and the GI50 (SN12C renal) was 323 nM. For the same compound, the TGI (SN12C renal) was 31 µM, the GI50 (T-47D breast) was 590 nM and the TGI (T-47D breast) was 22.6 µM.

Compound `CC(=O)OCC12CN(C#N)C3C4COC(CC41)C1(C(=O)N(C)c4ccccc41)C32` (stereo not given) has a TGI (BT-549 breast) of 10.5 µM, a TGI (CCRF-CEM leukemia) of 53 µM and a TGI (HCC-2998 colon) of 86.6 µM. For the same compound, the TGI (K-562 leukemia) was > 100 µM, the TGI (MDA-MB-231 breast) was 64.9 µM and the TGI (NCI-H23 lung) was 44.6 µM. The TGI (NCI-H522 lung) was 24.7 µM, the TGI (SN12C renal) was 73.1 µM and the TGI (T-47D breast) was 62.7 µM.

In the case of `CC(c1cc(Cl)ccc1O)c1cc(Cl)ccc1O`, the GI50 (A498 renal) is reported as 8400 nM, the TGI (A498 renal) is reported as 20.8 µM and the GI50 (BT-549 breast) is reported as 4580 nM. For the same compound, the TGI (BT-549 breast) was 16.9 µM, the GI50 (HCC-2998 colon) was 3840 nM and the TGI (HCC-2998 colon) was 12.8 µM. For the same compound, the GI50 (MDA-MB-231 breast) was 3880 nM, the TGI (MDA-MB-231 breast) was 16.2 µM and the GI50 (NCI-H23 lung) was 2830 nM. The TGI (NCI-H23 lung) was 8.32 µM, the GI50 (NCI-H522 lung) was 2240 nM and the TGI (NCI-H522 lung) was 5.24 µM. The GI50 (SN12C renal) was 3660 nM, the TGI (SN12C renal) was 16.1 µM and the GI50 (T-47D breast) was 3850 nM. It also gave a TGI (T-47D breast) of 18.7 µM.

In the case of `O=[N+]([O-])c1ccc(/C=C/c2nc3ccc(Cl)cc3[nH]2)cc1`, the GI50 (A498 renal) is reported as 13900 nM, the TGI (A498 renal) is reported as 44.2 µM and the GI50 (HCC-2998 colon) is reported as 19500 nM. The TGI (HCC-2998 colon) was 88.1 µM, the GI50 (K-562 leukemia) was 5990 nM and the TGI (K-562 leukemia) was > 100 µM. For the same compound, the GI50 (MDA-MB-231 breast) was 26500 nM, the TGI (MDA-MB-231 breast) was > 100 µM and the GI50 (NCI-H23 lung) was 54500 nM. The TGI (NCI-H23 lung) was > 100 µM, the GI50 (NCI-H522 lung) was 14100 nM and the TGI (NCI-H522 lung) was > 100 µM. The GI50 (SN12C renal) was 24000 nM, the TGI (SN12C renal) was 91 µM and the GI50 (T-47D breast) was 28800 nM. For the same compound, the TGI (T-47D breast) was > 100 µM.

`CC1(C)NC(=O)N(CCCCCCN2C(=O)NC(C)(C)C2=O)C1=O` was tested, and the TGI (A498 renal) was > 100 µM, the TGI (CCRF-CEM leukemia) was > 100 µM and the TGI (HCC-2998 colon) was > 100 µM. The TGI (K-562 leukemia) was > 100 µM, the TGI (NCI-H23 lung) was > 100 µM and the TGI (NCI-H522 lung) was > 100 µM. For the same compound, the TGI (SN12C renal) was > 100 µM.

`CCCCCCCCCCCCCC[n+]1ccccc1` gave a GI50 (A498 renal) of 717 nM, a TGI (A498 renal) of 3.57 µM and a GI50 (CCRF-CEM leukemia) of 334 nM. For the same compound, the TGI (CCRF-CEM leukemia) was 1.99 µM, the GI50 (HCC-2998 colon) was 877 nM and the TGI (HCC-2998 colon) was 2.31 µM. For the same compound, the GI50 (K-562 leukemia) was 357 nM, the TGI (K-562 leukemia) was 6.25 µM and the GI50 (MDA-MB-231 breast) was 771 nM. For the same compound, the TGI (MDA-MB-231 breast) was 2.52 µM, the GI50 (NCI-H23 lung) was 507 nM and the TGI (NCI-H23 lung) was 3.02 µM. For the same compound, the GI50 (NCI-H522 lung) was 923 nM, the TGI (NCI-H522 lung) was 3.37 µM and the GI50 (SN12C renal) was 926 nM. For the same compound, the TGI (SN12C renal) was 2.5 µM, the GI50 (T-47D breast) was 486 nM and the TGI (T-47D breast) was 7.54 µM.

Work on `COC(=O)c1ccc2nc(-c3cc4ccccc4n3C)n(CCCCOc3cc4c(cc3OC)C(=O)N3CCC[C@H]3C=N4)c2c1` yielded a GI50 (A498 renal) of 374 nM, a TGI (A498 renal) of 1.73 µM and a GI50 (BT-549 breast) of 284 nM. For the same compound, the TGI (BT-549 breast) was 1.13 µM, the GI50 (CCRF-CEM leukemia) was 2530 nM and the TGI (CCRF-CEM leukemia) was > 100 µM. The GI50 (K-562 leukemia) was 286 nM, the GI50 (MDA-MB-231 breast) was 366 nM and the TGI (MDA-MB-231 breast) was 2.17 µM. It also gave a GI50 (NCI-H23 lung) of 485 nM, a TGI (NCI-H23 lung) of 1.21 µM and a GI50 (NCI-H522 lung) of 291 nM. It also gave a TGI (NCI-H522 lung) of 1.1 µM, a GI50 (SN12C renal) of 361 nM and a TGI (SN12C renal) of 2.17 µM. For the same compound, the GI50 (T-47D breast) was 751 nM and the TGI (T-47D breast) was 3.51 µM.
